Consider three compounds from patent US20220411726A1, “STABILIZED LIQUID BORON-FREE ENZYME COMPOSITIONS” (Novozymes A/S, priority 2019, published 2022).

Series [1] relates to Escherichia coli, Pseudomonas aeruginosa, Salmonella havana, Acinetobacter spp., Staphylococcus aureus, Staphylococcus xylosus, Enterococcus faecium. Nature of the series: Microbial stability challenge of protease formulation, bottle 1. Format: cell-based. The settings on record: inoculated to 10^5 CFU/mL. As for the experimental part:
(§1) An aqueous protease (subtilisin) solution was formulated with 40% w/w glycerol at pH 6.0 to a final enzyme protein concentration of 5.5% w/w. Two samples were prepared by adding 4% w/w 1,2-hexanediol or 0.3% w/w 1,2-octanediol to the protease solution.
(§2) This was done by challenging the formulations with the microorganisms in Table 7. Each of the three bottles in Table 8 were inoculated to a total of 10^5 CFU/mL of the test microorganisms.
(§3) The bottles were analyzed for CFU/mL after 2 and 4 weeks of incubation at 20-25° C. CFU (colony forming units) per mL was measured using standard microbiological methods.

Series [2] deals with amylase (Fortiva Revo from Novozymes). Nature of the series: Turbidity of commercial liquid amylase product after addition of 1,2-hexanediol (nephelometer). Format: physicochemical. Here is the method:
(§4) The transparency (turbidity) of two commercial liquid protease (Fermax from Novozymes) and amylase (Fortiva Revo from Novozymes) products were evaluated before and after addition of different amounts of 1,2-hexanediol.

The test system of series [3] is Lactobacillus buchneri, Lactobacillus para paracasei. Nature of the series: Microbial stability challenge of protease formulation, bottle 2. To be noted: inoculated to 10^5 CFU/mL. Format: cell-based. As for the experimental part: as §1, §2, §3
Series [4] relates to Aspergillus niger, Candida parapsilosis, Candida famata. Nature of the series: Microbial stability challenge of protease formulation, bottle 3. Format: cell-based. The settings on record: inoculated to 10^5 CFU/mL. As for the experimental part:
as §1, §2, §3

A further series deals with Mannanase. Nature of the series: Increase in enzyme solubility (supernatant enzyme activity), mannanase. The series is classed as physicochemical. To be noted: mannanase suspension, 2 hours at room temperature. Here is the method:
(§5) An aqueous enzyme solution produced via fermentation of microorganism and recovered by removal of cells were concentrated using ultrafiltration to form a supersaturated protein solution. The solution was cooled below 5° C. for more than 24 hours to generate protein precipitate. The protein precipitate was suspended in the cold solution by shaking before use. Water and 1,2-hexanediol or glycerol were added to the protein suspension to obtain a diluted protein suspension with the indicated concentration of 1,2-hexanediol or glycerol while keeping the dilution of the protein suspension constant (70% w/w protein suspension to 30% w/w water/1,2-hexanediol/glycerol). The diluted protein suspensions were mixed for 2 hours at room temperature on a magnetic stirred followed by centrifugation to generate a clear supernatant. The obtained supernatant was analyzed for enzyme activity. The data in Table 5 show how much the enzyme solubility (enzyme activity) has increased compared to the reference sample, which only contains water.

Another series deals with Pectate lyase. Nature of the series: Increase in enzyme solubility (supernatant enzyme activity), pectate lyase. The settings on record: pectate lyase suspension, 2 hours at room temperature. The series is classed as physicochemical. As for the experimental part: as §5
The subject of the next series is aqueous lipase solution. Nature of the series: Physical stability of a lipase solution with 1,2-hexanediol or 1,2-octanediol (visual inspection). Format: physicochemical. The settings on record: lipase 3% w/w, 15% w/w sorbitol, 6% w/w MPG. Here is the method:
(§6) Physical stability is the ability to maintain a transparent, preferably clear, composition. This may be evaluated by visual inspection, or by centrifugation. For example, the liquid composition may centrifugated at 1200 G for 10 minutes to determine if a pellet (solid phase) is formed. Alternatively, transparency may be measured as turbidity or haziness, by using a nephelometer to measure NTU to determine light scattering.
An aqueous lipase solution was formulated with 15% w/w sorbitol and 6% w/w MPG to a final enzyme protein concentration of 3% w/w. Two samples were prepared by adding 1% w/w 1,2-hexanediol or 0.3% w/w 1,2-octanediol to the lipase solution.

A further series has as its system protease (subtilisin). Nature of the series: Enzymatic stability: residual activity of protease after 4 weeks storage. Format: physicochemical. Here is the method:
Enzymatic stability is the ability to maintain enzymatic activity after storage. This may be determined by measuring the enzymatic activity before and after storage (for example, 4 weeks storage at 25° C.) to determine how much activity is lost. For practical purposes, the residual activity may be determined by comparing the activity of a stored sample and a frozen reference sample, which are analyzed at the same time to eliminate analytical day-to-day variation.
An aqueous protease (subtilisin) solution was produced via fermentation of microorganism, recovered by removal of cells and concentrated using ultrafiltration. Water and 1,2-hexanediol were added to the protease solution to obtain a diluted protease solution with the indicated concentration of 1,2-hexanediol while keeping the dilution of the protease solution constant (70 w/w % protease solution to 30% w/w water/1,2-hexanediol). The diluted protease solutions were incubated in closed vials at −18° C., 25° C. and 40° C. for 4 weeks. The protease activity was measured in the stored samples and residual activity calculated by using protease activity in samples stored at −18° C. as reference.

The test system of series [5] is protease (Fermax from Novozymes). Nature of the series: Turbidity of commercial liquid protease product after addition of 1,2-hexanediol (nephelometer). The series is classed as physicochemical. Here is the method:
as §4

The subject of a further series is Protease. Nature of the series: Increase in enzyme solubility (supernatant enzyme activity), protease. The series is classed as physicochemical. To be noted: protease suspension, 2 hours at room temperature. Here is the method: as §5
Series [6] has as its system aqueous pectate lyase solution. Nature of the series: Physical stability of a pectate lyase solution with 1,2-hexanediol or glycerol (visual inspection and NTU). The series is classed as physicochemical. To be noted: additive 10% w/w; pectate lyase 8.1% w/w; 4 weeks at 25° C. Here is the method: as §6
(§7) An aqueous protease solution and an aqueous pectate lyase solution were formulated with 10% w/w water, 10% w/w 1,2-hexanediol, or 10% w/w glycerol to a final enzyme protein concentration of 6.8% w/w and 8.1% w/w, respectively. The physical stability was evaluated after storage for 4 weeks at 25° C., by visual inspection and by NTU measurements, as shown in Table 4.

For series [7], the system named is aqueous protease solution. Nature of the series: Physical stability of a protease solution with 1,2-hexanediol or glycerol (visual inspection and NTU). To be noted: additive 10% w/w; protease 6.8% w/w; 4 weeks at 25° C. Format: physicochemical. As for the experimental part: as §6, §7
Another series concerns aqueous amylase solution. Nature of the series: Physical stability of an amylase solution with 1,2-octanediol (visual inspection and NTU). The series is classed as physicochemical. The settings on record: 0.3% w/w 1,2-octanediol, amylase 4.3% w/w, 40% w/w glycerol, pH 4.8. As for the experimental part:
as §6
An aqueous amylase solution was formulated with 40% w/w glycerol at pH 4.8 to a final enzyme protein concentration of 4.3% w/w. A sample was prepared by adding 0.3% w/w 1,2-octanediol to the amylase solution, and the physical stability was evaluated by visual inspection and NTU measurement, as shown in Table 2.

[8] abbreviates: 4% w/w 1,2-hexanediol, 2 weeks at 20-25° C.
Setting [9] is: 4% w/w 1,2-hexanediol, 4 weeks at 20-25° C.
[10] abbreviates: 0.3% w/w 1,2-octanediol, 2 weeks at 20-25° C.
[11] abbreviates: 0.3% w/w 1,2-octanediol, 4 weeks at 20-25° C.

As for `CCCCC(O)CO` (stereo not drawn) [1,2-hexanediol], the “Microbial stability, measured as CFU/mL” value in [1] (setting [8]), in series [1] (setting [9]), in [3] (setting [8]), in series [3] (setting [9]), in series [4] (setting [8]) and in series [4] (setting [9]) was <1.0 × 10^2 CFU/mL in each case. For the same compound, the Turbidity amounted to 17.2 NTU in [2] (5% w/w 1,2-hexanediol added to liquid amylase product); 14.6 NTU in series [2] (10% w/w 1,2-hexanediol added to liquid amylase product); 21.2 NTU in series [5] (5% w/w 1,2-hexanediol added to liquid protease product); 11.7 NTU in series [5] (10% w/w 1,2-hexanediol added to liquid protease product); 31.2 NTU in series [6]; 9.4 NTU in [7]. Moreover, the “Increase in enzyme solubility (enzyme activity) compared to the reference sample” value with Mannanase (additive 2% w/w) came to 7%; with Mannanase (additive 5% w/w), 48%; in the series on Pectate lyase (additive 2% w/w), 32%; with Pectate lyase (additive 5% w/w), 66%; in the series with Protease (additive 2% w/w) it was 11%; with Protease (additive 5% w/w), 47%. The “Physical stability by visual inspection” value in the series on aqueous lipase solution (1% w/w 1,2-hexanediol, 4 weeks at 5° C.) was “clear”; with aqueous lipase solution (1% w/w 1,2-hexanediol, 4 weeks at 25° C.), “haze”; with aqueous lipase solution (1% w/w 1,2-hexanediol, 4 weeks at 40° C.) it was “precipitate”. Also, the “Residual activity of protease after 4 weeks storage” value with protease (subtilisin) (2% w/w 1,2-hexanediol, 25° C.) is 48%; in the series with protease (subtilisin) (2% w/w 1,2-hexanediol, 40° C.), 8%; in the series with protease (subtilisin) (2% w/w 1,2-hexanediol, −18° C. (reference temperature for the calculation)), 100%; in the series on protease (subtilisin) (5% w/w 1,2-hexanediol, 25° C. (room temperature)) it was 77%; with protease (subtilisin) (5% w/w 1,2-hexanediol, 40° C.), 14%; in the series with protease (subtilisin) (5% w/w 1,2-hexanediol, −18° C. (reference temperature for the calculation)) it was 100%. Also, the Visual score entry in series [6] is listed as “haze”; in series [7], “clear”.
Take `CCCCCCC(O)CO` (stereo not drawn) [1,2-octanediol]: the “Microbial stability, measured as CFU/mL” value in [1] (setting [10]) is on record as 3.0 × 10^2 CFU/mL; in series [1] (setting [11]), <1.0 × 10^2 CFU/mL; in series [3] (setting [10]) it was <1.0 × 10^2 CFU/mL; in series [3] (setting [11]), <1.0 × 10^2 CFU/mL; in [4] (setting [10]), 7.0 × 10^2 CFU/mL; in series [4] (setting [11]), <1.0 × 10^2 CFU/mL. Further, the “Physical stability by visual inspection” value is “clear” with aqueous lipase solution (0.3% w/w 1,2-octanediol, 4 weeks at 5° C.); “clear” in the series with aqueous lipase solution (0.3% w/w 1,2-octanediol, 4 weeks at 25° C.); “haze” in the series with aqueous lipase solution (0.3% w/w 1,2-octanediol, 4 weeks at 40° C.). Besides, the Turbidity in the series on aqueous amylase solution (4 weeks at 5° C.) worked out at 19.1 NTU; in the series on aqueous amylase solution (4 weeks at 25° C.) it was 11.9 NTU; in the series on aqueous amylase solution (4 weeks at 40° C.) it was 12.7 NTU. For the same compound, the Visual score result with aqueous amylase solution (4 weeks at 5° C.), in the series with aqueous amylase solution (4 weeks at 25° C.) and in the series with aqueous amylase solution (4 weeks at 40° C.) was “haze” in each case.
As to `OCC(O)CO` [Glycerol, glycerol, reference compound], the “Increase in enzyme solubility (enzyme activity) compared to the reference sample” value stood at 10% with Mannanase (additive 2% w/w); 41% with Mannanase (additive 5% w/w); 10% with Pectate lyase (additive 2% w/w); 32% in the series with Pectate lyase (additive 5% w/w); 0% in the series with Protease (additive 2% w/w); 3% in the series on Protease (additive 5% w/w). In addition, the values for the Turbidity in series [6] and in series [7] were 540 NTU and 71.2 NTU, respectively. For the same compound, the Visual score result in [6] and in [7] was “precipitate” each time.
